Laboratory results: patent US20230159509A1 (Amathus Therapeutics, Inc., priority 2020, published 2023)

Legend:
Type in all cases: cell-based
[1] = tested on: primary rat dopaminergic TH-positive neurons; assay: ROS production and neurite network in primary rat dopaminergic TH-positive neurons injured with MPP+ or 6-OHDA
α-synuclein = α-synuclein aggregation in human embryonic stem cells overexpressing α-synuclein with an AAV vector; details: FIG. 9
[2] = target: T1, nanoLuc TRAP1 in SHSY5Y cells (Homo sapiens, UniProt Q12931); assay: NanoBRET in-cell target engagement assay
T1 construct: expressed in transfected cells; host or cells: SHSY5Y cells, transient transfection with FuGENE HD
T1 sequence (Q12931 60-704): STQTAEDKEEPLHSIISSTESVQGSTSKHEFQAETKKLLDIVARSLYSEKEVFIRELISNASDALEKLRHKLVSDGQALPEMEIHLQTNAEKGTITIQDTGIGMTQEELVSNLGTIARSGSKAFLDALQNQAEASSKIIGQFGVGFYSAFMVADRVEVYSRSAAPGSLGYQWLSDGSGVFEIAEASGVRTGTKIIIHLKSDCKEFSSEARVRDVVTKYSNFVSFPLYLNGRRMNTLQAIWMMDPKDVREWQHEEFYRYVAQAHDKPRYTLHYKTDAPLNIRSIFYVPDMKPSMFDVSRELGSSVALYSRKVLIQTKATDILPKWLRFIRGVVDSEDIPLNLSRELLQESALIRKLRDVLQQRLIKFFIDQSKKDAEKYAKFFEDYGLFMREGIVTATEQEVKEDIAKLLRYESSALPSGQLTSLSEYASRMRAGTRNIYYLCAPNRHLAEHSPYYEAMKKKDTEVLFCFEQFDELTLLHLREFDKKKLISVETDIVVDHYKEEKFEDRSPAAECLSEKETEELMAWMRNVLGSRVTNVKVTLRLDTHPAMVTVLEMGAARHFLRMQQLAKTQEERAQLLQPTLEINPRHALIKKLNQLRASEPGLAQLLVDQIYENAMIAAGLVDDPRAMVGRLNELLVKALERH
Procedure: In-cell target engagement assays were performed as described in Robers M. B. et al. (2019) Quantitative, Real-Time Measurements of Intracellular Target Engagement Using Energy Transfer. In: Ziegler S., Waldmann H. (eds) Systems Chemical Biology. Methods in Molecular Biology, vol 1888. Humana Press, New York, N.Y.; Machleidt et al., ACS Chem. Biol. 2015, 10, 8, 1797-1804; or Vasta et al., Cell Chemical Biology 25, 206-214, Feb. 15, 2018; or as described herein.
Below is a protocol for transient transfection of SHSY5Y cells with NanoLuc® fusions. • 1. Cultivate SHSY5Y cells appropriately prior to assay in MEM w NEAA supplemented with 10% FBS. • 2. Remove medium from cell flask via aspiration, trypsinize, and allow cells to dissociate from the flask. • 3. Neutralize trypsin using growth medium and pellet cells via centrifugation at 200 g for 5 minutes. • 4. Aspirate medium and re-suspend cells into a single cell suspension using complete cell culture medium. • 5. Adjust the cell density to 300K/mL in cell culture medium in a sterile, conical tube. • 6. Prepare lipid:DNA complexes as follows (this covers two assay plates, adjust numbers for more plates) • a. Prepare a 10 μg/mL solution of DNA in Opti-MEM without serum. This solution should contain the following ratios of carrier DNA and DNA encoding NanoLuc® fusion. • i. 5.0 μg/mL of Transfection Carrier DNA (pGEM) • ii. […]

- displacement of fluorescent nanoBRET tracer (probe-385) from nanoLuc TRAP1 ([2]; SHSY5Y cells, tracer titration, compound 20 PM, FIG. 13): displacement of the tracer
- displacement of nanoBRET tracer (probe-385) from nanoLuc TRAP1, concentration response ([2]; live SHSY5Y cells, tracer 1 μM, FIG. 14): displacing the nanoBRET tracer molecule
SMILES: COc1ncc(NC(=O)c2csc(-c3ccccc3)n2)cc1S(=O)(=O)Nc1c(C)cccc1C [compound 1178]
- neurite network of primary rat TH+ dopaminergic neurons ([1]; injured with MPP+ (4 μM, 24 h), FIG. 4): protection of the neurite network
- neurite network of primary rat TH+ dopaminergic neurons ([1]; injured with MPP+ (4 μM, 48 h), FIG. 5): protection of neurite network
- ROS production in primary rat dopaminergic neurons ([1]; injury with 6-OHDA (20 μM, 4 h), FIG. 8): reduction in ROS
- ROS production in primary rat dopaminergic neurons ([1]; injury with MPP+ (4 μM, 4 h), FIG. 2): reduction of reactive oxygen species (ROS)
- ROS production in rat primary mesencephalic culture ([1]; injury with MPP+ (4 μM, 4 h), FIG. 3): reduction ROS
- α-synuclein aggregation (α-synuclein): reduction in α-synuclein aggregation
